Values quoted from earlier work, collected in patent US10332616B2, “Movable type method applied to protein-ligand binding” (University of Florida Research Foundation, Inc., priority 2013, dated 2019).

Details: aqueous solvation free energy, charged compounds (ions)

Row | Compound | Exp. ΔGsolv
1 | Cc1ccc(N)cc1 [i021, 4-methylaniline, reference compound] | -69.80 kcal/mol
2 | O=C(O)C(Cl)Cl [i120, dichloroaceticacid, reference compound] | -62.30 kcal/mol
3 | Nc1cccc(N)c1 [i023, 3-aminoaniline, reference compound] | -65.80 kcal/mol
4 | Cc1cccc(N)c1 [i020, 3-methylaniline, reference compound] | -69.60 kcal/mol
5 | CC(=O)O [i059, aceticacid, reference compound] | -77.60 kcal/mol

Same assay, conditions: experimental solvation free energy, neutral compounds test set

Row | Exp. ΔGsolv | Compound
6 | -4.83 kcal/mol | CCCO [Compound 0047pro]
7 | -9.71 kcal/mol | CC(N)=O [Compound 0233ethb]
8 | -2.01 kcal/mol | COC(C)C [Compound 0065met]
9 | -7 kcal/mol | CC(C)Cc1ccc(C(C)C(=O)O)cc1 (centres unmarked) [test2017]
10 | -3.66 kcal/mol | CCCNCCC [Compound 0115dip]
11 | -8.84 kcal/mol | CC(=O)OCC(COC(C)=O)OC(C)=O [test0001]
12 | -9.2 kcal/mol | CCOC(=O)c1ccc(O)cc1 [test2011]
13 | -13.93 kcal/mol | CC(=O)Nc1cccc(O)c1 [test3002]
14 | -7.58 kcal/mol | CN1CCN(C)CC1 [Compound 0114NNd]
15 | -2.73 kcal/mol | CSc1ccccc1 [Compound 0144thi]
16 | -2.29 kcal/mol | CCCCCCCC=O [Compound 0237oct]
17 | -2.83 kcal/mol | CCCC(=O)OC [Compound 0096met]
18 | -6.7 kcal/mol | CC(=O)O [Compound 0086eth]
19 | -9.4 kcal/mol | O=C(O)c1cc(-c2ccc(F)cc2F)ccc1O [test2010]
20 | -9.9 kcal/mol | COc1c(Cl)ccc(Cl)c1C(=O)O [test1025]
21 | -0.53 kcal/mol | CC(C)OC(C)C [Compound 0242dii]

Row | Exp. ΔGsolv | Compound
22 | -5.56 kcal/mol | C1CNC1 [Compound 0105aze]
23 | -2.21 kcal/mol | COC(C)(C)C [Compound 0067but]
24 | -4.47 kcal/mol | CCCCCO [Compound 0052pen]
25 | -10.21 kcal/mol | COc1ccc2cc([C@H](C)C(=O)O)ccc2c1 [test2021]
26 | -1.76 kcal/mol | CC(C)O [Compound 0048pro]
27 | -6.71 kcal/mol | Cc1c(Cl)cccc1Nc1ccccc1C(=O)O [test3019]
28 | -9.37 kcal/mol | CCCOC(=O)c1ccc(O)cc1 [test2026]
29 | -2.45 kcal/mol | COc1ccccc1 [Compound 0068ani]
30 | -8.72 kcal/mol | CCCCOC(=O)c1ccc(O)cc1 [test2003]
31 | -3.1 kcal/mol | CCOC(C)=O [Compound 0095eth]
32 | -9.51 kcal/mol | O=Cc1cccc(O)c1 [Compound 0150mhy]
33 | -5.05 kcal/mol | C1COCCO1 [Compound 0062dio]
34 | -3.23 kcal/mol | CN(C)C [Compound 0107tri]
35 | -2.65 kcal/mol | CCOC=O [Compound 0092ethb]
36 | -7.77 kcal/mol | CN1CCNCC1 [Compound 0112Nme]
37 | -6.77 kcal/mol | COCCO [Compound 0146met]

Row | Compound | Exp. ΔGsolv
38 | Nc1c(Cl)c(Cl)nc(C(=O)O)c1Cl [Compound 0428ami] | -11.96 kcal/mol
39 | CCOC(=O)c1ccccc1S(=O)(=O)NC(=O)Nc1nc(Cl)cc(OC)n1 [test1020] | -14 kcal/mol
40 | CCCCC(=O)OC [Compound 0098met] | -2.57 kcal/mol
41 | COc1cccc(C(=O)O)c1 [test3015] | -8.93 kcal/mol
42 | COP(=S)(OC)Oc1ccc([N+](=O)[O-])cc1 [Compound 0441pho] | -7.62 kcal/mol
43 | COP(=O)(OC)OC [Compound 0220tri] | -8.7 kcal/mol
44 | Sc1ccccc1 [Compound 0139thi] | -2.55 kcal/mol
45 | COc1ccc(C(=O)N(C)C)cc1 [test0005] | -11.01 kcal/mol
46 | CCOP(=S)(OCC)SCSP(=S)(OCC)OCC [test1031] | -6.1 kcal/mol
47 | Oc1ccccc1 [Compound 0053phe] | -6.62 kcal/mol
48 | CNC(=O)ON=C(C)SC [test1037] | -10.7 kcal/mol
49 | Nc1ccc(N)c2c1C(=O)c1c(N)ccc(N)c1C2=O [test1060] | -8.9 kcal/mol
50 | N#Cc1cc(Br)c(O)c(Br)c1 [Compound 0425dbr] | -9 kcal/mol
51 | COc1ccccc1C(=O)O [test3007] | -10.32 kcal/mol
52 | CCOC(=O)CC(SP(=S)(OC)OC)C(=O)OCC (centres unmarked) [test1036] | -8.2 kcal/mol
53 | CCCSP(=O)(OCC)Oc1ccc(Br)cc1Cl (centres unmarked) [Compound 0442pho] | -4.09 kcal/mol
54 | CCCCN(CC)C(=O)SCCC [test1044] | -3.6 kcal/mol
55 | CCOP(=S)(OCC)SCSCC [test1045] | -4.4 kcal/mol
56 | Nc1ccccc1 [Compound 0118ani] | -5.49 kcal/mol
57 | CCCCN(CC)c1c([N+](=O)[O-])cc(C(F)(F)F)cc1[N+](=O)[O-] [test1011] | -3.5 kcal/mol
58 | CCOP(=S)(OCC)Oc1cc(C)nc(C(C)C)n1 [test1024] | -6.5 kcal/mol
59 | C1CCNCC1 [Compound 0225pipa] | -5.11 kcal/mol
60 | COC(=O)c1ccccc1CS(=O)(=O)NC(=O)Nc1nc(OC)cc(OC)n1 [test1012] | -17.2 kcal/mol
61 | Cc1[nH]c(=O)n(C(C)(C)C)c(=O)c1Cl [test1052] | -11.1 kcal/mol
62 | COP(=S)(OC)SCn1nnc2ccccc2c1=O [test1010] | -10 kcal/mol
63 | Nc1cccc2c1C(=O)c1ccccc1C2=O [test1061] | -8 kcal/mol
64 | ClCCOCCCl [test0007] | -4.23 kcal/mol

Same assay, conditions: experimental solvation free energy; test set with 372 neutral compounds

Row | Compound | Exp. ΔGsolv
65 | Nc1ccc([N+](=O)[O-])cc1 [test2022] | -9.45 kcal/mol
66 | Cc1ccc(C)cc1 [Compound 0040pxy] | -0.81 kcal/mol
67 | N#Cc1ccccc1 [Compound 0129ben] | -4.1 kcal/mol
68 | Cc1nc(N(C)C)nc(OC(=O)N(C)C)c1C [test1063] | -9.4 kcal/mol
69 | CCCC(=O)CCC [Compound 0083hep] | -2.93 kcal/mol
70 | O=C1NC(=O)c2ccccc21 [test2025] | -9.61 kcal/mol
71 | C1CCCC1 [Compound 0017cyc] | 1.2 kcal/mol
72 | Cc1ccccc1Cl [Compound 0413clt] | -1.15 kcal/mol
73 | CSc1nc(NC(C)C)nc(NC(C)C)n1 [test1047] | -8.4 kcal/mol
74 | ClC(Cl)(Cl)C(Cl)(Cl)Cl [Compound 0408hex] | -1.4 kcal/mol
75 | CCC#N [Compound 0127pro] | -3.85 kcal/mol
76 | Cl[C@H]1[C@H](Cl)[C@@H](Cl)[C@@H](Cl)[C@H](Cl)[C@H]1Cl [test1035] | -5.4 kcal/mol
77 | CCCCBr [Compound 0184bro] | -0.41 kcal/mol
78 | Nc1ccc(N=Nc2ccc([N+](=O)[O-])cc2)cc1 [test1058] | -11.2 kcal/mol
79 | Cc1ccnc(C)c1 [Compound 0123dim] | -4.86 kcal/mol
80 | C#CCC [Compound 0032but] | -0.16 kcal/mol
81 | Clc1ccccc1 [Compound 0174chl] | -1.12 kcal/mol
82 | CC(Cl)(Cl)Cl [Compound 0165tri] | -0.25 kcal/mol
83 | CCCN(CC1CC1)c1c([N+](=O)[O-])cc(C(F)(F)F)cc1[N+](=O)[O-] [test1046] | -2.5 kcal/mol
84 | C1CCCCC1 [Compound 0018cyc] | 1.23 kcal/mol
85 | CCCC(C)Cl (centres unmarked) [Compound 0411chp] | 0.07 kcal/mol
86 | COP(=O)(OC)OC=C(Cl)Cl [Compound 0433pho] | -6.61 kcal/mol
87 | Cc1ccccc1[N+](=O)[O-] [Compound 0135met] | -3.59 kcal/mol
88 | C[N+](=O)[O-] [Compound 0506nit] | -3.95 kcal/mol
89 | CC(C)[N+](=O)[O-] [Compound 0132nit] | -3.14 kcal/mol

Row | Compound | Exp. ΔGsolv
90 | CCC(C)O[N+](=O)[O-] (centres unmarked) [test1004] | -1.8 kcal/mol
91 | C=C(C)C [Compound 0024met] | 1.16 kcal/mol
92 | c1ccncc1 [Compound 0116pyr] | -4.7 kcal/mol
93 | C=CCCl [Compound 0170chl] | -0.57 kcal/mol
94 | CCC(=O)CC [Compound 0079pen] | -3.41 kcal/mol
95 | CBr [Compound 0177bro] | -0.82 kcal/mol
96 | CCCCC(C)=O [Compound 0080hex] | -3.29 kcal/mol
97 | CC(C)CO[N+](=O)[O-] [test1005] | -1.9 kcal/mol
98 | Brc1ccc(Br)cc1 [Compound 0187dib] | -2.3 kcal/mol
99 | CCCCCCC [Compound 0007nhe] | 2.62 kcal/mol
100 | Cl/C=C/Cl [Compound 0172Edi] | -0.76 kcal/mol
101 | C=C [Compound 0021eth] | 1.27 kcal/mol
102 | FCCl [Compound 0198chl] | -0.77 kcal/mol
103 | FC(F)(F)c1cccc(C(F)(F)F)c1 [test0004] | 1.07 kcal/mol
104 | Clc1ccccc1-c1ccccc1Cl [Compound 0414dcl] | -2.73 kcal/mol
105 | C=CCBr [Compound 0417brp] | -0.86 kcal/mol
106 | CCc1ccccc1 [Compound 0037eth] | -0.8 kcal/mol
107 | CCCN(CCC)c1c([N+](=O)[O-])cc(C(F)(F)F)cc1[N+](=O)[O-] [test1056] | -3.3 kcal/mol
108 | C#CC [Compound 0031pro] | -0.31 kcal/mol
109 | C=CCCC [Compound 0027pen] | 1.66 kcal/mol
110 | Cc1ccccc1 [Compound 0036tol] | -0.89 kcal/mol
111 | ClCCBr [Compound 0202bro] | -1.95 kcal/mol
112 | CC(C)C [Compound 0010met] | 2.32 kcal/mol
113 | Clc1ccccc1-c1cccc(Cl)c1Cl [Compound 0416dcl] | -1.99 kcal/mol
